# Where two headings read alike, the source gives them in different places.
# How the values were obtained:
# [1] = tested on: Outdoor Chaetomium-like strain CH1/tu; assay: Resistance to biocides: ascospore germination; type: cell-based, Unidentified Chaetomium-like strain
# Method: (§1) The toxicity of biocides and chemicals towards the indoor Chaetomium-like isolates and the reference indoor strains of the genera Aspergillus, Paecilomyces, Penicillium and Trichoderma was assessed in parallel with the six parameters presented in the Supplementary Materials: (1) germ tube assay (Figure S3); (2) estimation of turbidity (Figure S4); (3) visual emission of fluorescence (excitation at 360 nm); (4) visual resporulation of conidia; (5) inhibition of glucose consumption; and (6) resazurin reduction. All assays were performed in malt extract broth (12 g L^−1 malt extract, 7.2 µmol mL^−1 glucose, pH 5.5; Scharlab, Barcelona, Spain) in 96-well microtiter plates as described for the ICP assay.
# The assays measuring inhibition of germination of conidia were done with spore suspensions of 1–2 × 10^6 fungal spores mL−^1. […] The germ tube germination is visualized in Figure S3, and the tests estimating turbidity and emission of fluorescence provoked by the germinated and metabolically active conidia and C. globosum ascospores are visualized in Figures S4 and S5. Examples of the tests estimating fluorescence emission, turbidity and re-sporulation of conidia and ascospores are compared in Figure S5. The difference of the endpoints measured with the different assays was between 38% and <28.5%. […]
# Ch. rectangulare Mo13 = assay: Resistance to biocides: ascospore germination; type: cell-based
# Method: as §1
# (§2) The assays measuring inhibition of germination of conidia were done with spore suspensions of 1–2 × 10^6 fungal spores mL−^1. The tests were performed in malt extract broth (Oxoid, Hampshire United Kingdom) 12 g in 1 L, pH 5.5, glucose 7.1 mmol L^−1, and performed on microtiter plates as described by Bencsik et al. for the ICP assay. The germ tube germination is visualized in Figure S3, and the tests estimating turbidity and emission of fluorescence provoked by the germinated and metabolically active conidia and C. globosum ascospores are visualized in Figures S4 and S5. Examples of the tests estimating fluorescence emission, turbidity and re-sporulation of conidia and ascospores are compared in Figure S5. The difference of the endpoints measured with the different assays was between […]. The resazurin reduction assays (Figure S6) were performed as described for the ICP assay, except that the microtiter plates were visually inspected for the change of the blue/violet color of resazurin (indicating inhibition of germination of the exposed conidia) to the […] (indicating metabolic activity and germination of the exposed conidia).
# (§3) The formation of germ tubes was inspected by a phase-contrast microscope (Olympus CKX41, Tokyo, Japan; magnification 400×) and an image recording software (Cellsense® standard version 11.0.06, Olympus Soft Imaging Solutions GmbH, Münster, Germany, 2012) after 1 and 2 days of incubation at 28 °C. The EC50 corresponded to the inhibition of 50% (estimated as the concentration between EC0 and EC100) of the conidia compared to the ethanol control (the growth medium containing 1% of ethanol). The tests were run in triplicate and calibrated with triclosan (CAS: 3380-34-5; Sigma Chemical Co., St. Louis, MO, USA) giving a mean SD of ±<20%.
# [2] = tested on: Indoor Trichoderma atroviride Tri335; assay: Resistance to biocides: conidial germination; type: cell-based; conditions: strain Tri335, indoor Trichoderma atroviride
# Method: as §1, §2, §3
# [3] = tested on: Indoor Trichoderma atroviride Tri7A/SKK; assay: Resistance to biocides: conidial germination; type: cell-based; conditions: strain Tri7A/SKK
# Method: as §1, §2, §3
# Ch. globosum MH 52 = assay: Resistance to biocides: ascospore germination; type: cell-based, Chaetomium globosum; conditions: strain MH 52, indoor Ch. globosum
# Method: as §1, §2, §3
# Ch. globosum 2c/MT = assay: Resistance to biocides: ascospore germination; type: cell-based, Chaetomium globosum; conditions: strain 2c/MT, indoor Ch. globosum
# Method: as §1, §2, §3
# Ch. globosum ABCD = assay: Resistance to biocides: ascospore germination; type: cell-based, Chaetomium globosum; conditions: strain ABCD, indoor Ch. globosum
# Method: as §1, §2, §3
# Ch. globosum MTAV35 = assay: Resistance to biocides: ascospore germination; type: cell-based, Chaetomium globosum; conditions: strain MTAV35, indoor Ch. globosum, median of four independent measurements with five methods
# Method: as §1, §2, §3
# Ch. globosum C22/LM = assay: Resistance to biocides: ascospore germination; type: cell-based, Chaetomium globosum; conditions: strain C22/LM, indoor Ch. globosum
# Method: as §1, §2, §3
# Ch. globosum 2b/26 = assay: Resistance to biocides: ascospore germination; type: cell-based, Chaetomium globosum; conditions: strain 2b/26, indoor Ch. globosum
# Method: as §1, §2, §3
# Ch. globosum 3b/AP = assay: Resistance to biocides: ascospore germination; type: cell-based, Chaetomium globosum; conditions: strain 3b/AP, indoor Ch. globosum
# Method: as §1, §2, §3
# Ch. globosum HAS5 = assay: Resistance to biocides: ascospore germination; type: cell-based, Chaetomium globosum; conditions: strain HAS5, indoor Ch. globosum
# Method: as §1, §2, §3
# Ch. globosum RUK10 = assay: Resistance to biocides: ascospore germination; type: cell-based, Chaetomium globosum; conditions: strain RUK10, indoor Ch. globosum
# Method: as §1, §2, §3
# Ch. globosum MO9 = assay: Resistance to biocides: ascospore germination; type: cell-based, Chaetomium globosum; conditions: strain MO9, indoor Ch. globosum
# Method: as §1, §2, §3
# Ch. globosum MTAV37 = assay: Resistance to biocides: ascospore germination; type: cell-based, Chaetomium globosum; conditions: strain MTAV37, indoor Ch. globosum
# Method: as §1, §2, §3
# boar spermatozoa [4] = assay: cells; type: cell-based; conditions: Spermatozoa, 20 min; motile boar sperm, 20 min, 37 °C; read-out: EC50 BSMIM Boar Sperm 20 min
# boar spermatozoa [5] = assay: cells; type: cell-based; conditions: Spermatozoa; motile boar sperm, 2 h, 37 °C; read-out: EC50 SMIDM Boar Sperm 2 h
# [6] = Chaetomium globosum, MH52, read-out: EC50
# [7] = Chaetomium globosum, read-out: EC50
Compound,EC50 ([2]; read-out: EC50) [µg/mL],EC50 ([3]; read-out: EC50) [µg/mL],EC50 (Ch. globosum MH 52; [6]) [µg/mL],EC50 (Ch. globosum 2c/MT; [7]) [µg/mL],EC50 (Ch. globosum ABCD; [7]) [µg/mL],EC50 (Ch. globosum MTAV35; [7]) [µg/mL],EC50 (Ch. globosum C22/LM; [7]) [µg/mL],EC50 (Ch. globosum 2b/26; [7]) [µg/mL],EC50 (Ch. globosum 3b/AP; [7]) [µg/mL],EC50 (Ch. globosum HAS5; [7]) [µg/mL],EC50 (Ch. globosum RUK10; [7]) [µg/mL],EC50 (Ch. globosum MO9; [7]) [µg/mL],EC50 (Ch. globosum MTAV37; [7]) [µg/mL],EC50 [3] [µg/mL],EC50 (Ch. globosum 2c/MT) [µg/mL],EC50 (Ch. globosum C22/LM) [µg/mL],EC50 (Ch. globosum 2b/26) [µg/mL],EC50 (Ch. globosum 3b/AP) [µg/mL],EC50 (Ch. globosum HAS5) [µg/mL],EC50 (Ch. globosum RUK10) [µg/mL],other results
"O=BOB(O)OB(O)OB=O [Borax, sodium tetraborate]",2500,1200,5000,> 5000,5000,5000,> 5000,> 5000,> 5000,> 5000,5000,> 5000,5000,–,–,–,–,–,–,–,EC50 ([1]; read-out: EC50): 1200 µg/mL; EC50 (Ch. rectangulare Mo13): > 5000 µg/mL
"C/C1=C\[C@@H](C)C/C=C/[C@H]2[C@@H]3O[C@]3(C)[C@@H](C)[C@H]3[C@H](Cc4c[nH]c5ccccc45)NC(=O)[C@]32C(=O)/C=C/C(=O)[C@@H]1O [Chaetoglobosin A, chaetoglobosin A]",–,–,–,–,–,–,–,–,–,–,–,–,–,–,–,–,–,–,–,–,EC50 (boar spermatozoa [4]): 1 µg/mL; EC50 (boar spermatozoa [5]): 12 µg/mL
"NCl [Chloramine, chloramine]",–,–,–,–,–,–,–,–,–,–,–,–,–,2500,2500,2500,2500,2500,2500,2500,EC50 (Ch. globosum MO9): 2500 µg/mL
"OCCOc1ccccc1 [Phenoxy-ethanol, phenoxyethanol]",3000,1500,1500,1500,1500,700,1500,1500,1500,1500,1500,700,700,–,–,–,–,–,–,–,–
"Oc1cc(Cl)ccc1Oc1ccc(Cl)cc1Cl [Triclosan, 5-Chloro-2-(2,4-dichlorophenoxy)phenol]",30,16,2,4,4,2,4,4,4,2,2,2,4,–,–,–,–,–,–,–,–
polyhexamethylene biguanide hydrochloride [PHMB],–,–,–,–,–,–,–,–,–,–,–,–,–,8,8,8,8,8,8,4,"EC50 [1]: 4 µg/mL; EC50 (Ch. rectangulare Mo13; strain Mo13, indoor Ch. rectangulare): 4 µg/mL; EC50 [2]: 4 µg/mL; EC50 (Ch. globosum MH 52): 4 µg/mL; EC50 (Ch. globosum ABCD): 4 µg/mL; EC50 (Ch. globosum MTAV35): 4 µg/mL; EC50 (Ch. globosum MO9): 4 µg/mL; EC50 (Ch. globosum MTAV37): 4 µg/mL"

# Source: paper PMC7405012, “Detection of Chaetomium globosum, Ch. cochliodes and Ch. rectangulare during the Diversity Tracking of Mycotoxin-Producing Chaetomium-like Isolates Obtained in Buildings in Finland” (Toxins, 2020)
